Test results published in publication PMC7558399, “In Vitro Selective Growth-Inhibitory Activities of Phytochemicals, Synthetic Phytochemical Analogs, and Antibiotics against Diarrheagenic/Probiotic Bacteria and Cancer/Normal Intestinal Cells” (Pharmaceuticals, 2020).
Converted amounts (≈) assume the structure as drawn. Like-named read-outs stand apart in the source and are kept apart here.

Key:
Format in all cases: cell-based
[1] = test system: Bifidobacterium adolescentis (DSMZ 20087); assay: Broth microdilution MIC, B. adolescentis
[2] = test system: intestinal cancer cells (HT29 and Caco-2); assay: MTT cytotoxicity assay, mean for intestinal cancer cells
[3] = test system: Salmonella enterica ssp. enterica serovar Enteritidis (ATCC 13076); assay: Broth microdilution MIC, Salmonella Enteritidis
[4] = test system: Enterococcus faecalis (ATCC 29212); assay: Broth microdilution MIC, E. faecalis
[5] = test system: Caco-2 (ATCC HTB 37) intestinal cancer cells; assay: MTT cytotoxicity assay, Caco-2; conditions: Homo sapiens, Caco-2, 72 h
[6] = test system: Listeria monocytogenes (ATCC 7644); assay: Broth microdilution MIC, L. monocytogenes
[7] = test system: Yersinia enterocolitica (ATCC 9610); assay: Broth microdilution MIC, Y. enterocolitica; conditions: ATCC9610
[8] = test system: Shigella flexneri (ATCC 12022); assay: microbe, parasite or virus in culture; conditions: ATCC12022
[9] = test system: E. coli 0175:H7 (NCTC 12900); assay: microbe, parasite or virus in culture; conditions: Escherichia coli, NCTC12900
[10] = test system: Clostridium perfringens (DSMZ 11778); assay: microbe, parasite or virus in culture; conditions: DSMZ11778
[11] = test system: Clostridium difficile (DSMZ 12056); assay: microbe, parasite or virus in culture; conditions: Clostridioides difficile, DSMZ12056
[12] = test system: probiotic bacteria (9 strains); assay: Broth microdilution MIC, probiotic bacteria as a group (mean or range over strains); conditions: read-out: x¯ -PB ± SD: mean MIC for probiotic bacteria
[13] = test system: Lactobacillus reuteri (CCM 3625); assay: Broth microdilution MIC, L. reuteri; conditions: Limosilactobacillus reuteri, CCM3625
[14] = test system: Bifidobacterium breve (ATCC 15700); assay: Broth microdilution MIC, B. breve
[15] = test system: Lactobacillus rhamnosus (CCM 7091); assay: Broth microdilution MIC, L. rhamnosus; conditions: Lacticaseibacillus rhamnosus, CCM7091
[16] = test system: S. enterica ssp. enterica serovar Typhimurium (ATCC 14028); assay: Broth microdilution MIC, Salmonella Typhimurium
[17] = test system: Escherichia coli (ATCC 25922); assay: Broth microdilution MIC, E. coli
[18] = test system: FHs 74 Int (ATCC CCL 241) intestinal normal cells; assay: MTT cytotoxicity assay, FHs 74 Int; conditions: FHs74Int, 72 h; for IC50: read-out: IC50 ± SD; for IC80: read-out: IC80 ± SD (80% inhibitory concentration of proliferation)
[19] = test system: Bifidobacterium animalis spp. lactis (DSMZ 10140); assay: Broth microdilution MIC, B. animalis spp. lactis; conditions: DSMZ10140
[20] = test system: HT29 (ATCC HTB 38) intestinal cancer cells; assay: MTT cytotoxicity assay, HT29; conditions: Homo sapiens; for IC50: read-out: IC50 ± SD; for IC80: read-out: IC80 ± SD (80% inhibitory concentration of proliferation)
[21] = test system: Vibrio parahaemolyticus (ATCC 17802); assay: Broth microdilution MIC, V. parahaemolyticus
[22] = test system: diarrheagenic bacteria (12 strains); assay: microbe, parasite or virus in culture
[23] = test system: Lactobacillus casei (DSMZ 20011); assay: Broth microdilution MIC, L. casei; conditions: Lacticaseibacillus casei, DSMZ20011
[24] = test system: Bifidobacterium bifidum (ATCC 29521); assay: Broth microdilution MIC, B. bifidum
[25] = test system: Bifidobacterium longum ssp. longum (DSMZ 20219); assay: Broth microdilution MIC, B. longum ssp. longum; conditions: DSMZ20219
[26] = test system: Bacillus cereus (ATCC 14579); assay: Broth microdilution MIC, B. cereus
[27] = test system: Bacteroides fragilis (ATCC 25285); assay: Broth microdilution MIC, B. fragilis
[28] = FHs 74 Int (intestinal normal cells), MTT

Oc1cccc2cccnc12 [8HQ, 8-hydroxyquinoline]
MIC ([1]; DSMZ20087): 512 µg/mL (≈ 3530 µM)
IC50 ([2]; read-out: x¯ -CC ± SD: mean IC50 for intestinal cancer cells): 0.8 ± 0.5 µg/mL (≈ 5.51 µM)
IC80 ([2]; read-out: x¯ -CC ± SD: mean IC80 for intestinal cancer cells): 2.9 ± 2 µg/mL (≈ 20 µM)
MIC [3]: 256 µg/mL (≈ 1760 µM)
MIC ([4]; ATCC29212): 4 µg/mL (≈ 27.6 µM)
IC50 ([5]; read-out: IC50 ± SD): 0.3 ± 0.1 µg/mL (≈ 2.07 µM)
IC80 ([5]; read-out: IC80 ± SD (80% inhibitory concentration of proliferation)): 0.9 ± 0.1 µg/mL (≈ 6.2 µM)
MIC ([6]; ATCC7644): 1 µg/mL (≈ 6.89 µM)
MIC [7]: 512 µg/mL (≈ 3530 µM)
MIC [8]: 128 µg/mL (≈ 882 µM)
MIC [9]: 256 µg/mL (≈ 1760 µM)
MIC [10]: 128 µg/mL (≈ 882 µM)
MIC [11]: 128 µg/mL (≈ 882 µM)
MIC [12]: 743 ± 343 µg/mL (≈ 5120 µM)
MIC [13]: > 512 µg/mL
MIC ([14]; ATCC15700): > 512 µg/mL
MIC [15]: > 512 µg/mL
MIC [16]: 512 µg/mL (≈ 3530 µM)
MIC ([17]; ATCC25922): 128 µg/mL (≈ 882 µM)
IC50 [18]: 10.7 ± 0.2 µg/mL (≈ 73.7 µM)
IC80 [18]: 20.3 ± 2.4 µg/mL (≈ 140 µM)
MIC ([19]; Bifidobacterium animalis): > 512 µg/mL
IC50 ([20]; HT-29, 72 h): 1.3 ± 0.3 µg/mL (≈ 8.96 µM)
IC80 ([20]; HT-29, 72 h): 4.8 ± 2.8 µg/mL (≈ 33.1 µM)
MIC ([21]; ATCC17802): 128 µg/mL (≈ 882 µM)
MIC ([22]; read-out: x¯ -DB ± SD: mean MIC for diarrheagenic bacteria): 224 ± 181 µg/mL (≈ 1550 µM)
MIC [23]: > 512 µg/mL
MIC ([24]; ATCC29521): 512 µg/mL (≈ 3530 µM)
MIC ([25]; Bifidobacterium longum): 512 µg/mL (≈ 3530 µM)
MIC ([26]; ATCC14579): 512 µg/mL (≈ 3530 µM)
MIC ([27]; ATCC25285): 32 µg/mL (≈ 220 µM)

O=C(O)c1cn(C2CC2)c2cc(N3CCNCC3)c(F)cc2c1=O [CP, ciprofloxacin]
MIC ([1]; DSMZ20087, growth inhibited by ≥80%, read-out: MIC): 8 µg/mL (≈ 24.1 µM)
MIC ([3]; Salmonella Enteritidis, growth inhibited by ≥80%, read-out: MIC): 0.031 µg/mL (≈ 0.0936 µM)
MIC ([4]; ATCC29212, growth inhibited by ≥80%, read-out: MIC): 2 µg/mL (≈ 6.04 µM)
MIC ([6]; ATCC7644, growth inhibited by ≥80%, read-out: MIC): 4 µg/mL (≈ 12.1 µM)
MIC [8]: 0.016 µg/mL (≈ 0.0483 µM)
MIC [9]: 0.016 µg/mL (≈ 0.0483 µM)
MIC ([12]; mean of 9 strains, >512 replaced with 1024): 23.6 ± 18 µg/mL (≈ 71.2 µM)
MIC ([13]; Lactobacillus reuteri, growth inhibited by ≥80%, read-out: MIC): 32 µg/mL (≈ 96.6 µM)
MIC ([14]; ATCC15700, growth inhibited by ≥80%, read-out: MIC): 64 µg/mL (≈ 193 µM)
MIC ([15]; Lactobacillus rhamnosus, growth inhibited by ≥80%, read-out: MIC): 4 µg/mL (≈ 12.1 µM)
MIC ([16]; Salmonella Typhimurium, growth inhibited by ≥80%, read-out: MIC): 0.031 µg/mL (≈ 0.0936 µM)
MIC ([17]; ATCC25922, growth inhibited by ≥80%, read-out: MIC): 0.062 µg/mL (≈ 0.187 µM)
IC50 [18, 28]: 51.8 ± 27 µg/mL (≈ 156 µM)
IC80 [18, 28]: 130 ± 24 µg/mL (≈ 391 µM)
MIC ([19]; Bifidobacterium animalis spp. lactis, growth inhibited by ≥80%, read-out: MIC): 32 µg/mL (≈ 96.6 µM)
IC50 ([20]; HT-29, HT29, MTT, 72 h): 130 ± 13 µg/mL (≈ 393 µM)
IC80 ([20]; HT-29, HT29, MTT, 72 h): > 512 µg/mL
MIC ([21]; ATCC17802, growth inhibited by ≥80%, read-out: MIC): 0.062 µg/mL (≈ 0.187 µM)
MIC ([22]; all gram-negative diarrheagenic bacteria, range over strains, read-out: MICs): 0.016 to 0.125 µg/mL (≈ 0.0483 to 0.377 µM)
MIC ([22]; gram-positive pathogens, range over strains, read-out: MICs): 1 to 16 µg/mL (≈ 3.02 to 48.3 µM)
MIC ([22]; mean of 12 strains, >512 replaced with 1024, read-out: x¯ -DB ± SD: mean MIC for diarrheagenic bacteria): 2 ± 4 µg/mL (≈ 6.04 µM)
MIC ([23]; Lactobacillus casei, growth inhibited by ≥80%, read-out: MIC): 32 µg/mL (≈ 96.6 µM)
MIC ([24]; ATCC29521, growth inhibited by ≥80%, read-out: MIC): 16 µg/mL (≈ 48.3 µM)
MIC ([25]; Bifidobacterium longum ssp. longum, growth inhibited by ≥80%, read-out: MIC): 16 µg/mL (≈ 48.3 µM)
MIC ([26]; ATCC14579, growth inhibited by ≥80%, median/mode, read-out: MIC): 1 µg/mL (≈ 3.02 µM)
MIC ([27]; ATCC25285, growth inhibited by ≥80%, read-out: MIC): 8 µg/mL (≈ 24.1 µM)
